Source: patent publication USRE38132E1, “Phenylpyrrolidines, phenylimidazolidines,3-phenyl-1,3-oxizolidines and 3-phenyl-1,3-thiazolidines and their use in the treatment of inflammatory disease” (Boehringer Ingelheim Pharmaceuticals, Inc., priority 1997, dated 2003)
Where two headings read alike, the source gives them in different places.

Key:
[1] = target: T1, interaction of ICAM-1 with the Leukointegrin CD18/CD11a (LFA-1) (Homo sapiens, UniProt P05107+P20701); test: Assay to determine inhibition of LFA-1 binding to ICAM-1 (immunopurified LFA-1 on plate-bound sICAM-1, ELISA readout)
T1 construct: endogenous in cells; sICAM-1: made in house, secreted from transfected CHO DUX cells
T1 sequence (P20701 26-1170): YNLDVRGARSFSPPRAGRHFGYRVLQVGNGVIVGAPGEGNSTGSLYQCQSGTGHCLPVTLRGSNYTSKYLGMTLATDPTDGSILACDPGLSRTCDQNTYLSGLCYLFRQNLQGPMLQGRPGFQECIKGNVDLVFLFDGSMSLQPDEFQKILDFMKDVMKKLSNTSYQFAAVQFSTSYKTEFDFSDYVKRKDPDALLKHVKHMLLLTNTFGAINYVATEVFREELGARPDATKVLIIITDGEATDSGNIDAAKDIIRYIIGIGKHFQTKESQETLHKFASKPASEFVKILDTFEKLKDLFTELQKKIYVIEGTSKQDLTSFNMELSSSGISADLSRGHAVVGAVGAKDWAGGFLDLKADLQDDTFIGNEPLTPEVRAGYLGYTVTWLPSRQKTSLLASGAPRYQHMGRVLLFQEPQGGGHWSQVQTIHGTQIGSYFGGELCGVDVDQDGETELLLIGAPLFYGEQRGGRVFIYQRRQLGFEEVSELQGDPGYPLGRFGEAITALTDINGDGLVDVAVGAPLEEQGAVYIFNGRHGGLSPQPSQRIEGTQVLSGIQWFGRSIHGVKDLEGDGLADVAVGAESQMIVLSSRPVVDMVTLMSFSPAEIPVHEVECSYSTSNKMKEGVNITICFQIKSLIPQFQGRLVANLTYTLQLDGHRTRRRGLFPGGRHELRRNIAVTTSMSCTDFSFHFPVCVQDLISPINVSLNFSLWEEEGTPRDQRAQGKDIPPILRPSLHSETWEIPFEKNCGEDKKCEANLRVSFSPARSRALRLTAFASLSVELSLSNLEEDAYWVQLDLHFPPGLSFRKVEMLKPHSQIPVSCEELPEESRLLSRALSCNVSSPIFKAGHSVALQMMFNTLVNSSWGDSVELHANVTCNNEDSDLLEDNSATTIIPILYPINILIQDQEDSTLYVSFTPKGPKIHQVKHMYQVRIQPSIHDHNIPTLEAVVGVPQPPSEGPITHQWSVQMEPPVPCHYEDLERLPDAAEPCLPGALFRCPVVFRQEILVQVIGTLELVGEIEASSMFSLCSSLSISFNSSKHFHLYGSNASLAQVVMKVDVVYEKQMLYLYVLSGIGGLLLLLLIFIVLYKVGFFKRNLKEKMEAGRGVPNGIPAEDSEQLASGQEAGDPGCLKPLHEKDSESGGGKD
T1 sequence (P05107 23-769): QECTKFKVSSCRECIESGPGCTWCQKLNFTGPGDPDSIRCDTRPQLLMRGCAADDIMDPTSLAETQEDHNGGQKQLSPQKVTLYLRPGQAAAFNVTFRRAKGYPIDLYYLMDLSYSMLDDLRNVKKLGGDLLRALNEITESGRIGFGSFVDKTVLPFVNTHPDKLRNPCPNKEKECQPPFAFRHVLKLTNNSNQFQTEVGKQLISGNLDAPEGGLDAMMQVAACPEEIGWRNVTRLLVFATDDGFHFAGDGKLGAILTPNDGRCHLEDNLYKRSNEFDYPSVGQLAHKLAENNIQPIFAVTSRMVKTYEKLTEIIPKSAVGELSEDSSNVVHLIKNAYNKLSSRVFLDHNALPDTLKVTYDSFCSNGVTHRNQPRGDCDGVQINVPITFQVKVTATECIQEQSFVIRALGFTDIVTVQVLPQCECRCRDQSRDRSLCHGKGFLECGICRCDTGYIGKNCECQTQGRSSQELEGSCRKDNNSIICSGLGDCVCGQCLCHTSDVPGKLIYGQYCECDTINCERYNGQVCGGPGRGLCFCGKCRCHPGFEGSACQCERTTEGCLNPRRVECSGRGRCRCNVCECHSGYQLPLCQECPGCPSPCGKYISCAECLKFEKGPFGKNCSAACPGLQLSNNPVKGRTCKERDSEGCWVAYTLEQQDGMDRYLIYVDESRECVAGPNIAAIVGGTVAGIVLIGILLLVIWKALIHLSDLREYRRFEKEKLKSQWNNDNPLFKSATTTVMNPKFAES
Excerpt: Assay to Determine Inhibition of LFA-1 Binding to ICAM-1 Purpose of Assay: This assay protocol is designed to study the direct antagonism, by a test compound, of the interaction of the CAM, ICAM-1 with the Leukointegrin CD18/CD11a (LFA-1). […] After collection and neutralization of fractions from the TS2/4 column, samples are pooled and precleared with Protein G agarose. […] Wells are washed 3 times with Diluting Buffer. The bound LFA-1 is detected by the addition of a polyclonal antibody directed against a peptide corresponding to the CD18 cytoplasmic tail in a 1:100 dilution with Diluting Buffer and 1% BSA and allowed to incubate for 45 min at 37° C. Wells are washed 3 times with Diluting Buffer and the bound polyclonal antibody is detected by the addition of a 1:4000 dilution of horse radish peroxidase conjugated to goat immunoglobulin directed against rabbit immunoglobulin. […] The lack of the addition of LFA-1 to the binding assay is used as a background control for all samples. A dose-response curve is obtained for all test compounds. Results of these tests are reported as Kd's in μM.

[2] = test system: cell bound form of LFA-1 (CD18, CD11a) with ICAM-1, SKW3 cells; test: Inhibition of SKW3 cell binding to ICAM-1 (PMA-stimulated); format: cell-based, human; settings: read-out: Assay to Detect SKW3 Cells Binding to ICAM IC50
Excerpt: (§1) Assay to Determine Inhibition of SKW3 cell binding to ICAM-1 vs. Binding to Fibronectin
(§2) This assay is used to test the selective ability of a test compound to antagonize the interaction of a cell bound form of LFA-1 with ICAM-1. The assay uses a human T cell line, SKW3 cells which express CD18, CD11a and other integrins not related to CD18, CD11a and which can be “activated” by phorbol esters. Phorbol esters enhance the affinity of CD18, CD11a for ICAM-1.
(§3) This same lymphocyte line, SKW3, also adheres to fibronectin in the presence of phorbol esters. This adhesion is mediated by membrane proteins independent of the LFA-1/ICAM-1 interaction. The SKW3 cells express another integrin, VLA4, which is the receptor for fibronectin. Therefore, as a preliminary indication of the selectivity of a test compounds to interfere with Leukointegrin/CAM interactions but not other integrin-ligand binding events, a compound can be tested for its ability to antagonize cell bound fibronectin receptor in its interaction with purified fibronectin. Compounds that inhibit this fibronectin adhesion are not specific antagonists of the CD18, CD11a/ICAM-1 binding.
(§4) Description of Assay Protocol:
(§5) Ninety-six well plates are coated with either sICAM-1(40 μg/mL) or fibronectin (100 μg/mL) in Diluting buffer for 1 h at room temperature. Added to the wells are 100 μL of the appropriately diluted test compound or 100 μL of RPMI with 15% fetal bovine serum as a control. SKW3 cells, which express CD18, CD11a and VLA4 (Dustin, M.; et al., J. Exp. Med. 1987, 165, 672-692) are washed and suspended to a concentration of 10^6 cells/mL in RPMI with 15% fetal bovine serum. Immediately before adding the cells to the wells, cells are stimulated with the phorbol ester 12-myristate 13-acetate (PMA) for a final concentration of […]. 100 μL of cells are then added to the wells resulting in a final concentration of […]. The plates are incubated for 2 h at 37° C. Unbound or loosely bound cells are gently washed away with RPMI.
(§6) Data are reported as the concentration or concentration range (in μM) at which 50% of binding is inhibited.

[3] = test system: cell bound fibronectin receptor (VLA4) with fibronectin, SKW3 cells; test: Inhibition of SKW3 cell binding to fibronectin (selectivity counter-assay); format: cell-based, human; settings: for IC50: read-out: Assay to Detect SKW3 Cells Binding to FIBRONECTIN IC50
Excerpt: as §1, §2, §3, §4, §5, §6

[4] = values marked e approximated from incomplete dose-response curve
[5] = Homo sapiens, SKW3, values marked c: no inhibition observed up to highest dose
[6] = values marked c: no inhibition observed up to highest dose
[7] = No inh = no inhibition observed up to highest dose, exact quantification not always possible due to intrinsic toxicity

C[C@@]1(Cc2ccccc2)NC(=O)N(c2cc(Cl)cc(Cl)c2)C1=O [Example 2]
Kd [1, 4]: 14.4 µM | IC50 [2, 5]: > 100 µM | IC50 [3, 5]: > 100 µM | Cellular Toxicity Assay MTT LD50 (SKW3 cells): 125 to 250 µM

O=C1NC(Cc2ccc([N+](=O)[O-])cc2)C(=O)N1c1cc(Cl)cc(Cl)c1 (centres unmarked) [Example 7]
Kd [1, 4]: 1.33 µM | IC50 [2, 5]: 50 to 100 µM | Assay to Detect SKW3 Cells Binding to FIBRONECTIN IC50 [3, 6]: No inh^c | Cellular Toxicity Assay MTT LD50 (SKW3 cells): 250 to 500 µM

O=C1N[C@@H](Cc2ccccc2)C(=O)N1c1cc(Cl)cc(Cl)c1 [Example 14]
Kd [1, 4]: 12.7 µM | IC50 [2, 5]: 63 to 125 µM | IC50 [3, 5]: > 125 µM | Cellular Toxicity Assay MTT LD50 (SKW3 cells): 125 to 250 µM

CC1(Cc2ccccc2)NC(=O)N(c2cc(C(F)(F)F)cc(C(F)(F)F)c2)C1=O (centres unmarked) [Example 16]
Kd [1, 4]: 0.85 µM | IC50 [2, 5]: 19 to 38 µM | IC50 [3, 5]: > 75 µM | Cellular Toxicity Assay MTT LD50 (SKW3 cells): 63 to 125 µM

O=C1NC(Cc2ccc3ccccc3c2)C(=O)N1c1cc(Cl)cc(Cl)c1 (centres unmarked) [Example 17]
Kd [1, 4]: 3.01 µM | IC50 [2, 5]: > 63 µM | Assay to Detect SKW3 Cells Binding to FIBRONECTIN IC50 [3, 6]: No inh^c | Cellular Toxicity Assay MTT LD50 (SKW3 cells): 125 µM

O=C1NC(Cc2ccccc2)C(=O)N1c1cc(Cl)cc(Cl)c1 (centres unmarked) [Example 20]
Kd [1, 4]: 1.76 µM | IC50 [2, 5]: 16 µM | IC50 [3, 5]: 63 to 125 µM | Cellular Toxicity Assay MTT LD50 (SKW3 cells): 125 to 250 µM

C[C@H](c1ccccc1)[C@H]1NC(=O)N(c2cc(Cl)cc(Cl)c2)C1=O [Example 21]
Kd [1, 4]: 0.69 µM | IC50 [2, 5]: < 16 µM | IC50 [3, 5]: 125 to 250 µM | Cellular Toxicity Assay MTT LD50 (SKW3 cells): 125 to 250 µM

C[C@@H](c1ccccc1)[C@H]1NC(=O)N(c2cc(Cl)cc(Cl)c2)C1=O [Example 22]
Kd [1, 4]: 0.4 µM | IC50 [2, 5]: < 16 µM | Assay to Detect SKW3 Cells Binding to FIBRONECTIN IC50 [3, 6]: No inh^c | Cellular Toxicity Assay MTT LD50 (SKW3 cells): 125 to 250 µM

O=C1NC(Cc2ccc([N+](=O)[O-])cc2)C(=O)N1c1cc(Cl)cc(Cl)c1 (centres unmarked) [Example 24]
Kd [1, 4]: 0.85 µM | IC50 [2, 6]: > 60 µM | Assay to Detect SKW3 Cells Binding to FIBRONECTIN IC50 [3, 6]: No inh^c | Cellular Toxicity Assay MTT LD50 (SKW3 cells): >400 µM

CC1(Cc2c[nH]c3ccccc23)NC(=O)N(c2cc(Cl)cc(Cl)c2)C1=O (centres unmarked) [Example 28]
Kd [1, 4]: 2.59 µM | Assay to Detect SKW3 Cells Binding to FIBRONECTIN IC50 [3, 6]: No inh^c | Cellular Toxicity Assay MTT LD50 (SKW3 cells): 100 to 200 µM

O=C1CC(Cc2ccccc2)C(=O)N1c1cc(Cl)cc(Cl)c1 (centres unmarked) [Example 76]
Kd [1, 4]: 2.34 µM | IC50 [2, 5]: 150 to 300 µM | IC50 [3, 5]: > 300 µM | Cellular Toxicity Assay MTT LD50 (SKW3 cells): >500 µM

CN1C(=O)N(c2cc(Cl)cc(Cl)c2)C(=O)C1Cc1ccccc1 (centres unmarked) [Example 82]
Kd [1, 4]: 2.1 µM | IC50 [2, 5]: 63 to 125 µM | IC50 [3, 5]: > 250 µM | Cellular Toxicity Assay MTT LD50 (SKW3 cells): 250 to 500 µM

C[C@H](c1ccccc1)[C@@H]1C(=O)N(c2cc(Cl)cc(Cl)c2)C(=O)N1C [Example 85]
Kd [1, 4]: 0.72 µM | IC50 [2, 5]: 19 to 38 µM | IC50 [3, 5]: > 75 µM | Cellular Toxicity Assay MTT LD50 (SKW3 cells): >500 µM

C[C@@H](c1ccccc1)[C@@H]1C(=O)N(c2cc(Cl)cc(Cl)c2)C(=O)N1C [Example 86]
Kd [1, 4]: 0.53 µM | IC50 [2, 5]: 19 to 38 µM | IC50 [3, 5]: > 75 µM | Cellular Toxicity Assay MTT LD50 (SKW3 cells): >500 µM

CN1C(=O)N(c2cc(C(F)(F)F)cc(C(F)(F)F)c2)C(=O)C1(C)Cc1ccccc1 (centres unmarked) [Example 88]
Kd [1, 4]: 0.41 µM | IC50 [2, 6]: 19 to 38 µM | IC50 [3, 6]: > 75 µM | Cellular Toxicity Assay MTT LD50 (SKW3 cells): 250 to 500 µM

CCN1C(=O)N(c2cc(Cl)cc(Cl)c2)C(=O)C1(C)Cc1ccccc1 (centres unmarked) [Example 89]
Kd [1, 4]: 0.29 µM | IC50 [2, 5]: 50 µM | Assay to Detect SKW3 Cells Binding to FIBRONECTIN IC50 [3, 6]: No inh^c | Cellular Toxicity Assay MTT LD50 (SKW3 cells): 500 µM

CCCN1C(=O)N(c2cc(Cl)cc(Cl)c2)C(=O)C1(C)Cc1ccccc1 (centres unmarked) [Example 90]
Kd [1, 4]: 0.73 µM | IC50 [2, 5]: 50 to 100 µM | Assay to Detect SKW3 Cells Binding to FIBRONECTIN IC50 [3, 6]: No inh^c | Cellular Toxicity Assay MTT LD50 (SKW3 cells): >500 µM

CC(=O)N1C(=O)N(c2cc(Cl)cc(Cl)c2)C(=O)C1(C)Cc1ccccc1 (centres unmarked) [Example 96]
Kd [1, 4]: 0.46 µM | IC50 [2, 5]: 50 µM | Assay to Detect SKW3 Cells Binding to FIBRONECTIN IC50 [3, 6]: No inh^c | Cellular Toxicity Assay MTT LD50 (SKW3 cells): 100 to 200 µM

C[C@@]1(Cc2ccc([N+](=O)[O-])cc2)C(=O)N(c2cc(Cl)cc(Cl)c2)C(=O)N1S(C)(=O)=O [Example 136]
Kd [1, 4]: 0.19 µM | IC50 [2, 5]: 0.6 to 1 µM | Assay to Detect SKW3 Cells Binding to FIBRONECTIN IC50 [3, 6]: No inh^c | Cellular Toxicity Assay MTT LD50 (SKW3 cells): 150 to 300 µM

CN1C(=O)N(c2cc(Cl)cc(Cl)c2)C(=O)C1(C)Cc1ccc(Br)cc1 (centres unmarked) [Example 138]
IC50 [2, 5]: 6 µM | Assay to Detect SKW3 Cells Binding to FIBRONECTIN IC50 [3, 6]: No inh^c | Cellular Toxicity Assay MTT LD50 (SKW3 cells): 250 to 500 µM

CN1C(=O)N(c2cc(Cl)cc(Cl)c2)C(=O)[C@@]1(C)Cc1ccc(-c2ccncc2)cc1 [Example 189]
Kd [1, 4]: 0.19 µM | IC50 [2, 5]: 0.6 to 1.2 µM | Assay to Detect SKW3 Cells Binding to FIBRONECTIN IC50 [3, 6]: No inh^c | Cellular Toxicity Assay MTT LD50 (SKW3 cells): 63 µM

C[C@@]1(Cc2ccc(Br)cc2)C(=O)N(c2cc(Cl)cc(Cl)c2)C(=O)N1C(=O)CO [Example 231]
Kd [1]: 0.27 µM | IC50 ([2]; Homo sapiens, SKW3): 2 to 5 µM | Assay to Detect SKW3 Cells Binding to FIBRONECTIN IC50 [3, 7]: No inh^c | Cellular Toxicity Assay MTT LD50 (SKW3 cells): 40 to 80 µM

C[C@@]1(Cc2ccc(Br)cc2)C(=O)N(c2cc(Cl)cc(Cl)c2)C(=O)N1CCCCN [Example 241]
Kd [1]: 0.1 µM | IC50 ([2]; Homo sapiens, SKW3): 0.8 to 1.6 µM | IC50 ([3]; Homo sapiens, SKW3, No inh = no inhibition observed up to highest dose, exact quantification not always possible due to intrinsic toxicity): 13 µM | Cellular Toxicity Assay MTT LD50 (SKW3 cells): 9 to 18 µM

C[C@@]1(Cc2ccc(Br)cc2)C(=O)N(c2cc(Cl)cc(Cl)c2)C(=O)N1CCCCCS(=O)(=O)O [Example 251]
Kd [1]: 0.06 µM | IC50 ([2]; Homo sapiens, SKW3): < 0.5 µM | Assay to Detect SKW3 Cells Binding to FIBRONECTIN IC50 [3, 7]: No inh^c | Cellular Toxicity Assay MTT LD50 (SKW3 cells): 100 to 200 µM

C[C@H](c1ccccc1)[C@]1(C)C(=O)N(c2cc(Cl)cc(Cl)c2)C(=O)N1C [Example 269]
Kd [1]: 0.29 µM | IC50 ([2]; Homo sapiens, SKW3): 25 µM | Assay to Detect SKW3 Cells Binding to FIBRONECTIN IC50 [3, 7]: No inh^c | Cellular Toxicity Assay MTT LD50 (SKW3 cells): 250 to 500 µM

CN1C(=O)N(c2cc(Cl)cc(Cl)c2)C(=O)[C@]1(C)Cc1ccc(Br)cc1 [Example 272]
IC50 ([2]; Homo sapiens, SKW3): 50 to 100 µM | Assay to Detect SKW3 Cells Binding to FIBRONECTIN IC50 [3, 7]: No inh^c | Cellular Toxicity Assay MTT LD50 (SKW3 cells): 250 to 500 µM
